{"source": "patent US20200079819A1", "about": "“Use of a Vaccine Targeting a Cryptic Tert Epitope, for Treating Lung Cancer in a HLA-A*0201-Positive Never-Smoker or Light-Former Smoker Patient” (Vaxon Biotech, priority 2017, published 2020)", "tested_on": "HLA-A*0201 positive patients with NSCLC expressing TERT", "experiment": "Vx-001-201 randomized double blind phase IIb clinical trial (OS, TTF, 12 months survival)", "type": "in vivo, human", "source_text": "The Vx-001-201 study is a randomized, double blind multicenter study done in 70 centers in France, Germany, Spain, Italy, Greece, Poland, Romania and Czech Republic. Key eligibility criteria were a) non small cell lung cancer (NSCLC), b) stage IV or recurrent stage I-III, c) disease control after platinum based first line chemotherapy according to RECIST 1.1 criteria, d) HLA-A*0201 positivity, e) tumors expressing TElomerase Reverse Transcriptase (TERT), f) ECOG 0 or 1 g) absence of brain metastasis.\na) Principal endpoint: overall survival (OS) measured from randomization\nb) Secondary endpoints: • Time to Treatment Failure (TTF) measured from randomization • OS at 12 months\nPatients who fulfilled all inclusion criteria were randomized within 4 weeks after the end of first line chemotherapy.\nThe vaccination protocol consisted in six vaccinations at three weeks interval. The optimized Vx-001/TERT572Y was used in the first two vaccinations and the native Vx-001/TERT572 in the following four vaccinations. Patients who continued controlling their disease after the sixth vaccination received boost vaccination with the Vx-001/TERT572 every three months. Vaccination was stopped at disease progression (FIG. 1).\nThe primary and secondary endpoints were analysed in the Full Analysis Set composed of all patients who fulfilled the […] five main criteria a) NSCLC, b) stage IV or recurrent stage I-III, and c) disease control after first line chemotherapy, d) HLA-A*0201 positivity and e) TERT expressing tumors.\nWe used the Kaplan-Meier method to estimate OS and TTF in each arm and a Cox proportional hazards regression model to estimate Hazard Ratio (HR) relating OS and TTF to the treatment effect.", "key": {"[1]": {"conditions": "FAS patients, all, Vx-001 vs placebo"}, "[2]": {"conditions": "FAS, 1st line chemotherapy CARBO (n = 119), Vx-001 arm"}, "[3]": {"conditions": "FAS, 1st line chemotherapy CDDP (n = 69), Vx-001 arm"}, "[4]": {"conditions": "FAS, Current smoker (n = 50), including light-smoker (≤25 years) (n = 5), Vx-001 arm"}, "[5]": {"conditions": "FAS, Female (n = 59), Vx-001 arm"}, "[6]": {"conditions": "FAS, Male (n = 131), Vx-001 arm"}, "[7]": {"conditions": "FAS, NS + Former smokers (<30 years)(n = 61), Vx-001 arm"}, "[8]": {"conditions": "FAS, NS + Former smokers (≤20 years)(n = 47), Vx-001 arm"}, "[9]": {"conditions": "FAS, Never smokers (NS) (n = 25), Vx-001 arm"}, "[10]": {"conditions": "FAS, age <65 years (n = 92), Vx-001 arm"}, "[11]": {"conditions": "FAS, age >65 years (n = 98), Vx-001 arm"}, "[12]": {"conditions": "FAS, response to chemotherapy OR (n = 87), Vx-001 arm"}, "[13]": {"conditions": "FAS, response to chemotherapy SD (n = 103), Vx-001 arm"}, "[14]": {"conditions": "FAS, sub-group NSQ (n = 118), Vx-001 arm"}, "[15]": {"conditions": "FAS, sub-group SQ (n = 72), Vx-001 arm"}, "[16]": {"conditions": "NS + Former smokers (≤25 years), all (n = 55), Vx-001 arm"}, "[17]": {"conditions": "never-smokers and light-smokers (≤25 years, stopped or not), <65 y (n = 28), Vx-001 arm"}, "[18]": {"conditions": "never-smokers and light-smokers (≤25 years, stopped or not), >65 y (n = 32), Vx-001 arm"}, "[19]": {"conditions": "never-smokers and light-smokers (≤25 years, stopped or not), All (n = 60), Vx-001 arm"}, "[20]": {"conditions": "never-smokers and light-smokers (≤25 years, stopped or not), ECOG 0 (n = 28), Vx-001 arm"}, "[21]": {"conditions": "never-smokers and light-smokers (≤25 years, stopped or not), ECOG 1 (n = 32), Vx-001 arm"}, "[22]": {"conditions": "never-smokers and light-smokers (≤25 years, stopped or not), Female (n = 25), Vx-001 arm"}, "[23]": {"conditions": "never-smokers and light-smokers (≤25 years, stopped or not), Male (n = 35), Vx-001 arm"}, "[24]": {"conditions": "never-smokers and light-smokers (≤25 years, stopped or not), NSQ (n = 46), Vx-001 arm"}}, "note": "Values joined by “and” are separate entries in the source; they are usually repeats but may differ in a detail not shown here. Identical values can stand only once. No end group written: not given here.", "data": [{"substance": "Vx-001: vaccine composed of two nine-amino-acid peptides, TERT572 (SEQ ID No: 1) and TERT572Y (SEQ ID No: 2), administered separately with adjuvant Montanide ISA51 VG (chain 1 RLFFYRKSV; chain 2 YLFFYRKSV; not fully specified)", "values": [{"measurement": "12 months survival", "setting": "FAS patients, all, Vx-001 arm", "value": 58, "unit": "%"}, {"measurement": "OS (median)", "setting": "FAS patients, all, Vx-001 arm", "value": 14.3, "unit": "months"}, {"measurement": "TTF (median)", "setting": "FAS patients, all, Vx-001 arm", "value": 3.6, "unit": "months"}, {"measurement": "HR (OS)", "setting": "[1]", "value": 0.97}, {"measurement": "HR (TTF)", "setting": "[1]", "value": 0.88}, {"measurement": "12 months OS (%)", "setting": "[2]", "value": 58.2, "unit": "%"}, {"measurement": "Median survival (months)", "setting": "[2]", "value": 14.3, "unit": "months"}, {"measurement": "HR (OS)", "setting": "FAS, 1st line chemotherapy CARBO (n = 119), Vx-001 vs placebo", "value": 1.06}, {"measurement": "12 months OS (%)", "setting": "[3]", "value": 59, "unit": "%"}, {"measurement": "Median survival (months)", "setting": "[3]", "value": 15, "unit": "months"}, {"measurement": "HR (OS)", "setting": "FAS, 1st line chemotherapy CDDP (n = 69), Vx-001 vs placebo", "value": 0.81}, {"measurement": "12 months OS (%)", "setting": "[4]", "value": 37.5, "unit": "%"}, {"measurement": "Median survival (months)", "setting": "[4]", "value": 9, "unit": "months"}, {"measurement": "HR (OS)", "setting": "FAS, Current smoker (n = 50), including light-smoker (≤25 years) (n = 5), Vx-001 vs placebo", "value": 1.39}, {"measurement": "12 months OS (%)", "setting": "[5]", "value": 53.3, "unit": "%"}, {"measurement": "Median survival (months)", "setting": "[5]", "value": 13.2, "unit": "months"}, {"measurement": "HR (OS)", "setting": "FAS, Female (n = 59), Vx-001 vs placebo", "value": 1.52}, {"measurement": "12 months OS (%)", "setting": "[6]", "value": 61, "unit": "%"}, {"measurement": "Median survival (months)", "setting": "[6]", "value": 15, "unit": "months"}, {"measurement": "HR (OS)", "setting": "FAS, Male (n = 131), Vx-001 vs placebo", "value": 0.81}, {"measurement": "12 months OS (%)", "setting": "[7]", "value": 69, "unit": "%"}, {"measurement": "Median survival (months)", "setting": "[7]", "value": 16.2, "unit": "months"}, {"measurement": "HR (OS)", "setting": "FAS, NS + Former smokers (<30 years)(n = 61), Vx-001 vs placebo", "value": 0.67}, {"measurement": "12 months OS (%)", "setting": "[8]", "value": 72.7, "unit": "%"}, {"measurement": "Median survival (months)", "setting": "[8]", "value": 15.3, "unit": "months"}, {"measurement": "HR (OS)", "setting": "FAS, NS + Former smokers (≤20 years)(n = 47), Vx-001 vs placebo", "value": 0.67}, {"measurement": "12 months OS (%)", "setting": "[9]", "value": 70, "unit": "%"}, {"measurement": "Median survival (months)", "setting": "[9]", "value": 14.1, "unit": "months"}, {"measurement": "HR (OS)", "setting": "FAS, Never smokers (NS) (n = 25), Vx-001 vs placebo", "value": 0.76}, {"measurement": "12 months OS (%)", "setting": "[10]", "value": 57.7, "unit": "%"}, {"measurement": "Median survival (months)", "setting": "[10]", "value": 13.4, "unit": "months"}, {"measurement": "HR (OS)", "setting": "FAS, age <65 years (n = 92), Vx-001 vs placebo", "value": 1.2}, {"measurement": "12 months OS (%)", "setting": "[11]", "value": 59, "unit": "%"}, {"measurement": "Median survival (months)", "setting": "[11]", "value": 15, "unit": "months"}, {"measurement": "HR (OS)", "setting": "FAS, age >65 years (n = 98), Vx-001 vs placebo", "value": 0.78}, {"measurement": "12 months OS (%)", "setting": "[12]", "value": 69, "unit": "%"}, {"measurement": "Median survival (months)", "setting": "[12]", "value": 15.3, "unit": "months"}, {"measurement": "HR (OS)", "setting": "FAS, response to chemotherapy OR (n = 87), Vx-001 vs placebo", "value": 0.89}, {"measurement": "12 months OS (%)", "setting": "[13]", "value": 52, "unit": "%"}, {"measurement": "Median survival (months)", "setting": "[13]", "value": 14.3, "unit": "months"}, {"measurement": "HR (OS)", "setting": "FAS, response to chemotherapy SD (n = 103), Vx-001 vs placebo", "value": 0.99}, {"measurement": "12 months OS (%)", "setting": "[14]", "value": 55, "unit": "%"}, {"measurement": "Median survival (months)", "setting": "[14]", "value": 13.4, "unit": "months"}, {"measurement": "HR (OS)", "setting": "FAS, sub-group NSQ (n = 118), Vx-001 vs placebo", "value": 0.88}, {"measurement": "12 months OS (%)", "setting": "[15]", "value": 64, "unit": "%"}, {"measurement": "Median survival (months)", "setting": "[15]", "value": 14.3, "unit": "months"}, {"measurement": "HR (OS)", "setting": "FAS, sub-group SQ (n = 72), Vx-001 vs placebo", "value": 1.13}, {"measurement": "12 months OS (%)", "setting": "[16]", "value": "73% and 73.1%"}, {"measurement": "Median survival (months)", "setting": "[16]", "value": 16.2, "unit": "months"}, {"measurement": "12 months OS", "setting": "[17]", "value": 76.9, "unit": "%"}, {"measurement": "OS (months)", "setting": "[17]", "value": 20.2, "unit": "months"}, {"measurement": "HR (OS)", "setting": "never-smokers and light-smokers (≤25 years, stopped or not), <65 y (n = 28), Vx-001 vs placebo", "value": 0.50}, {"measurement": "12 months OS", "setting": "[18]", "value": 64.3, "unit": "%"}, {"measurement": "OS (months)", "setting": "[18]", "value": 15.3, "unit": "months"}, {"measurement": "HR (OS)", "setting": "never-smokers and light-smokers (≤25 years, stopped or not), >65 y (n = 32), Vx-001 vs placebo", "value": 0.62}, {"measurement": "12 months OS", "setting": "[19]", "value": 70.4, "unit": "%"}, {"measurement": "OS (months)", "setting": "[19]", "value": 20.2, "unit": "months"}, {"measurement": "HR (OS)", "setting": "never-smokers and light-smokers (≤25 years, stopped or not), All (n = 60), Vx-001 vs placebo", "value": 0.55}, {"measurement": "12 months OS", "setting": "[20]", "value": 66.7, "unit": "%"}, {"measurement": "OS (months)", "setting": "[20]", "value": 24.7, "unit": "months"}, {"measurement": "HR (OS)", "setting": "never-smokers and light-smokers (≤25 years, stopped or not), ECOG 0 (n = 28), Vx-001 vs placebo", "value": 0.52}, {"measurement": "12 months OS", "setting": "[21]", "value": 73.3, "unit": "%"}, {"measurement": "OS (months)", "setting": "[21]", "value": 15.3, "unit": "months"}, {"measurement": "HR (OS)", "setting": "never-smokers and light-smokers (≤25 years, stopped or not), ECOG 1 (n = 32), Vx-001 vs placebo", "value": 0.49}, {"measurement": "12 months OS", "setting": "[22]", "value": 61.5, "unit": "%"}, {"measurement": "OS (months)", "setting": "[22]", "value": 15.3, "unit": "months"}, {"measurement": "HR (OS)", "setting": "never-smokers and light-smokers (≤25 years, stopped or not), Female (n = 25), Vx-001 vs placebo", "value": 0.95}, {"measurement": "12 months OS", "setting": "[23]", "value": 78.6, "unit": "%"}, {"measurement": "OS (months)", "setting": "[23]", "value": 24.7, "unit": "months"}, {"measurement": "HR (OS)", "setting": "never-smokers and light-smokers (≤25 years, stopped or not), Male (n = 35), Vx-001 vs placebo", "value": 0.34}, {"measurement": "12 months OS", "setting": "[24]", "value": 70.0, "unit": "%"}, {"measurement": "OS (months)", "setting": "[24]", "value": 20.2, "unit": "months"}, {"measurement": "HR (OS)", "setting": "never-smokers and light-smokers (≤25 years, stopped or not), NSQ (n = 46), Vx-001 vs placebo", "value": 0.50}, {"measurement": "12 months OS", "setting": "never-smokers and light-smokers (≤25 years, stopped or not), SQ (n = 14), Vx-001 arm", "value": 71.4, "unit": "%"}]}]}
